Laboratory results as given in US11771765B2, “Light augmented treatment method” (The Procter & Gamble Company, priority 2019, dated 2023).

System: M. furfur CBS 7982
Test: Fractional Inhibitor Concentration (FIC): antimicrobial plus 409 nm light on M. furfur growth
Assay type: cell-based, Malassezia furfur
Settings: for growth, OD 600 nm: 16 h growth
Procedure: Fractional Inhibitor Concentration (FIC) is a conventional methodology for evaluating the interaction of two antimicrobial chemicals. […] In an embodiment of the present invention, FIC is used to determine combinatorial effects of one chemical and exposure to light on Malassezia growth and/or viability in an in vitro system.
• 1. M. furfur CBS 7982 cells are exposed to a varying concentrations of an antimicrobial active (e.g. ZPT, Piroctone Olamine) for a specified amount of time (e.g. 2 min to 3 hours). • 2. After exposure, the antimicrobial is washed away by centrifugation of the cells and a series of washes • 3. Cells are then exposed to light at a wavelength of 409 nm for varying lengths of time • 4. Cells are then allowed to grow up overnight (e.g. 17 h) to determine the impact of the treatment on viability and growth of the organism by measuring OD600 II. Data Analysis: • 1. Inhibition of growth is determined to be where the OD value obtained is <=50% of the untreated control • 2. The lowest concentration value of the antimicrobial agent which inhibits growth is determined • 3. Likewise, the shortest light exposure time is determined that gives growth inhibition • 4. Finally, the combination of the lowest concentration of the antimicrobial and the shortest light exposure time that provides growth inhibition is determined • 5. The FIC value is determined using the calculation below:
[formula] • 6. The combinatorial effect of the antimicrobial and light is classified according to the chart below: […]
(§1) M. furfur is incubated for one hour with varying concentrations of Piroctone Olamine. Cell pellets are collected by centrifugation so that most of the anti-fungal material has been removed. The cell pellet is suspended in PBS and 500 uL samples are distributed to four 12 well plates and treated with light (409 nm) for 1, 10 or 60 minutes or stored in the dark. Samples are then diluted into mDixon, and incubated for 16 h with subsequent growth measured by OD 600 nm.
as §1, with “Hinokitiol.” for “Piroctone Olamine.”, “27” for “16”, “nm. […]” for “nm.”

[O-]n1ccccc1=S.[O-]n1ccccc1=S.[Zn+2] [ZPT, zinc salt of 1-hydroxy-2-pyridinethione]
shortest light exposure time when applied in combination to give growth inhibition (409 nm light, with the lowest inhibiting concentration): 2 min | growth, OD 600 nm (ZPT 1.25 ppm 3 h, 409 nm light 0 min): 7.76 | growth, OD 600 nm (ZPT 1.25 ppm 3 h, 409 nm light 2 min): 7.24 | growth, OD 600 nm (ZPT 1.25 ppm 3 h, 409 nm light 10 min): 6.24 | growth, OD 600 nm (ZPT 1.25 ppm 3 h, 409 nm light 60 min): 1.96 | growth, OD 600 nm (ZPT 2.5 ppm 3 h, 409 nm light 0 min): 7.12 | growth, OD 600 nm (ZPT 2.5 ppm 3 h, 409 nm light 2 min): 3.35 | growth, OD 600 nm (ZPT 2.5 ppm 3 h, 409 nm light 10 min): 0.31 | growth, OD 600 nm (ZPT 2.5 ppm 3 h, 409 nm light 60 min): 0.03 | growth, OD 600 nm (ZPT 5 ppm 3 h, 409 nm light 0 min): 6.21 | growth, OD 600 nm (ZPT 5 ppm 3 h, 409 nm light 2 min): 5.30 | growth, OD 600 nm (ZPT 5 ppm 3 h, 409 nm light 10 min): 3.72 | growth, OD 600 nm (ZPT 5 ppm 3 h, 409 nm light 60 min): 0.87 | growth, OD 600 nm (ZPT 10 ppm 3 h, 409 nm light 0 min): 4.85 | growth, OD 600 nm (ZPT 10 ppm 3 h, 409 nm light 2 min): 4.91 | growth, OD 600 nm (ZPT 10 ppm 3 h, 409 nm light 10 min): 4.06 | growth, OD 600 nm (ZPT 10 ppm 3 h, 409 nm light 60 min): 0.83 | growth, OD 600 nm (ZPT 20 ppm 3 h, 409 nm light 0 min): 0.51 | growth, OD 600 nm (ZPT 20 ppm 3 h, 409 nm light 2 min): 0.58 | growth, OD 600 nm (ZPT 20 ppm 3 h, 409 nm light 10 min): 0.64 | growth, OD 600 nm (ZPT 20 ppm 3 h, 409 nm light 60 min): 0.37 | lowest concentration to give growth inhibition (antimicrobial alone, no light, inhibition = OD <=50% of untreated control): 10 ppm | FIC value (antimicrobial plus 409 nm light): 0.28 | Combinatorial Effect (antimicrobial plus 409 nm light, classified by FIC value): synergistic | lowest concentration when applied in combination with light to give growth inhibition (with 409 nm light, inhibition = OD <=50% of untreated control): 2.5 ppm
